Measured values taken from ChEMBL document CHEMBL3046894, “Synthesis and Herbicidal Activity of Pyrimidinyl Salicylic and Thiosalicylic Acids” (J Pestic Sci, 1996).
Active and inactive are the calls of the source. The calls are words filed in the database; no cut-off is given here.

Assays:
Zea mays [1] = assay: (§1) Pre-emergence phytotoxicity against Zea mays (maize) assessed as mortality at 1.6 g a.i/10 a; assay type: organism-based; settings: in vivo, other
Glycine max [2] = assay: Post-emergence phytotoxicity against Glycine max (soybean) assessed as mortality at 6.3 g a.i/10 a applied 11 days after germination as foliar spray; assay type: organism-based; settings: in vivo, other, 264 h
Gossypium hirsutum [3] = assay: (§2) Pre-emergence phytotoxicity against Gossypium hirsutum (cotton) assessed as mortality at 6.3 g a.i/10 a; assay type: organism-based; settings: in vivo, other
Persicaria nodosa [4] = assay: Pre-emergence herbicidal activity against Persicaria nodosa assessed as mortality per 10 acre; assay type: functional
Amaranthus retroflexus [5] = assay: Post-emergence herbicidal activity against Amaranthus retroflexus assessed as mortality per 10 acre; assay type: functional
[6] = (§3) Post-emergence phytotoxicity against Gossypium hirsutum (cotton) assessed as mortality at 6.3 g a.i/10 a applied 11 days after germination as foliar spray; assay type: organism-based; settings: in vivo, 6.3 g a.i/10 a
Zea mays [7] = assay: Post-emergence phytotoxicity against Zea mays (maize) assessed as mortality at 1.6 g a.i/10 a applied 11 days after germination as foliar spray; assay type: organism-based; settings: in vivo, other, 264 h
Gossypium hirsutum [8] = assay: Pre-emergence phytotoxicity against Gossypium hirsutum (cotton) assessed as mortality per 10 acre; assay type: organism-based; settings: in vivo
Glycine max [9] = assay: (§4) Pre-emergence phytotoxicity against Glycine max (soybean) assessed as mortality at 1.6 g a.i/10 a; assay type: organism-based; settings: in vivo, other
Abutilon theophrasti [10] = assay: Post-emergence herbicidal activity against Abutilon theophrasti (velvetleaf) assessed as mortality at 6.3 g a.i/10 a applied 11 days after germination as foliar spray; assay type: functional; settings: 264 h
Glycine max [11] = assay: Post-emergence phytotoxicity against Glycine max (soybean) assessed as mortality at 1.6 g a.i/10 a applied 11 days after germination as foliar spray; assay type: organism-based; settings: in vivo, other, 264 h
Zea mays [12] = assay: Pre-emergence phytotoxicity against Zea mays (maize) assessed as mortality at 6.3 g a.i/10 a; assay type: organism-based; settings: in vivo, other
Gossypium hirsutum [13] = assay: Post-emergence phytotoxicity against Gossypium hirsutum (cotton) assessed as mortality per 10 acre; assay type: organism-based; settings: in vivo
[14] = (§5) Post-emergence phytotoxicity against Gossypium hirsutum (cotton) assessed as mortality at 1.6 g a.i/10 a applied 11 days after germination as foliar spray; assay type: organism-based; settings: in vivo, 1.6 g a.i/10 a
Xanthium strumarium [15] = assay: Post-emergence herbicidal activity against Xanthium strumarium (cocklebur) assessed as mortality per 10 acre; assay type: functional
Glycine max [16] = assay: (§6) Pre-emergence phytotoxicity against Glycine max (soybean) assessed as mortality at 6.3 g a.i/10 a; assay type: organism-based; settings: in vivo, other
Echinochloa crus-galli [17] = assay: Pre-emergence herbicidal activity against Echinochloa crus-galli (barnyard grass) assessed as mortality per 10 acre; assay type: functional
Persicaria nodosa [18] = assay: Post-emergence herbicidal activity against Persicaria nodosa assessed as mortality per 10 acre; assay type: functional
Amaranthus retroflexus [19] = assay: Pre-emergence herbicidal activity against Amaranthus retroflexus assessed as mortality per 10 acre; assay type: functional
Ipomoea lacunosa [20] = assay: Pre-emergence herbicidal activity against Ipomoea lacunosa assessed as mortality per 10 acre; assay type: functional
Echinochloa crus-galli [21] = assay: Post-emergence herbicidal activity against Echinochloa crus-galli (barnyard grass) assessed as mortality per 10 acre; assay type: functional
Xanthium strumarium [22] = assay: Pre-emergence herbicidal activity against Xanthium strumarium (cocklebur) assessed as mortality per 10 acre; assay type: functional
Gossypium hirsutum [23] = assay: Pre-emergence phytotoxicity against Gossypium hirsutum (cotton) assessed as mortality at 1.6 g a.i/10 a; assay type: organism-based; settings: in vivo, other
Ipomoea lacunosa [24] = assay: Post-emergence herbicidal activity against Ipomoea lacunosa assessed as mortality per 10 acre; assay type: functional
[25] = as §1; assay type: organism-based; settings: in vivo, 1.6 g a.i/10 a, read-out: Activity
[26] = as §2; assay type: organism-based; settings: in vivo, 6.3 g a.i/10 a, read-out: Activity
Xanthium strumarium [27] = assay: Pre-emergence herbicidal activity against Xanthium strumarium (cocklebur) assessed as mortality at 6.3 g a.i/10 a; assay type: functional
Xanthium strumarium [28] = assay: Pre-emergence herbicidal activity against Xanthium strumarium (cocklebur) assessed as mortality at 1.6 g a.i/10 a; assay type: functional
Gossypium hirsutum [29] = assay: as §3; assay type: organism-based; settings: in vivo, other, 264 h
[30] = as §4; assay type: organism-based; settings: in vivo, 1.6 g a.i/10 a, read-out: Activity
Abutilon theophrasti [31] = assay: Pre-emergence herbicidal activity against Abutilon theophrasti (velvetleaf) assessed as mortality at 1.6 g a.i/10 a; assay type: functional
Gossypium hirsutum [32] = assay: as §5; assay type: organism-based; settings: in vivo, other, 264 h
Echinochloa crus-galli [33] = assay: Post-emergence herbicidal activity against Echinochloa crus-galli (barnyard grass) assessed as mortality at 6.3 g a.i/10 a applied 11 days after germination as foliar spray; assay type: functional; settings: 264 h
[34] = as §6; assay type: organism-based; settings: in vivo, 6.3 g a.i/10 a, read-out: Activity
Ipomoea lacunosa [35] = assay: Pre-emergence herbicidal activity against Ipomoea lacunosa assessed as mortality at 1.6 g a.i/10 a; assay type: functional
Zea mays [36] = assay: Post-emergence phytotoxicity against Zea mays (maize) assessed as mortality at 6.3 g a.i/10 a applied 11 days after germination as foliar spray; assay type: organism-based; settings: in vivo, other, 264 h
Echinochloa crus-galli [37] = assay: Post-emergence herbicidal activity against Echinochloa crus-galli (barnyard grass) assessed as mortality at 1.6 g a.i/10 a applied 11 days after germination as foliar spray; assay type: functional; settings: 264 h
Ipomoea lacunosa [38] = assay: Pre-emergence herbicidal activity against Ipomoea lacunosa assessed as mortality at 6.3 g a.i/10 a; assay type: functional
Abutilon theophrasti [39] = assay: Pre-emergence herbicidal activity against Abutilon theophrasti (velvetleaf) assessed as mortality at 6.3 g a.i/10 a; assay type: functional
Echinochloa crus-galli [40] = assay: Pre-emergence herbicidal activity against Echinochloa crus-galli (barnyard grass) assessed as mortality at 6.3 g a.i/10 a; assay type: functional

Compound | Activity (Zea mays [1]) | Activity (Glycine max [2]) | mortality at 264 h [6] [%] | Activity (Zea mays [7]) | Activity (Glycine max [9]) | mortality at 63 g/ha (Abutilon theophrasti [10]) [%] | Activity (Glycine max [11]) | Activity (Zea mays [12]) | mortality at 264 h [14] [%] | Activity (Glycine max [16]) | Activity (Gossypium hirsutum [23]) [%] | mortality [26] [%] | Activity (Abutilon theophrasti [31]) [%] | Activity (Ipomoea lacunosa [35]) [%] | Activity (Zea mays [36]) | mortality at 16 g/ha (Echinochloa crus-galli [37]) [%] | other results
COc1cc(OC)nc(Sc2cccc(Br)c2C(=O)O)n1 | Toxic | Toxic | < 5 | Toxic | Toxic | > 90 | Toxic | Toxic | < 5 | Toxic | < 50 |  |  |  |  |  | Activity (Gossypium hirsutum [3]): Non-toxic; ED90 (Persicaria nodosa [4]): inactive; ED90 (Amaranthus retroflexus [5]): 1.5 gAi; ED20 (Gossypium hirsutum [8]): 50 gAi; ED20 (Gossypium hirsutum [13]): 50 gAi; ED90 (Xanthium strumarium [15]): Active; ED90 (Echinochloa crus-galli [17]): 25 gAi; ED90 (Persicaria nodosa [18]): 1.5 gAi; ED90 (Amaranthus retroflexus [19]): 1.5 gAi; ED90 (Ipomoea lacunosa [20]): 25 gAi; ED90 (Echinochloa crus-galli [21]): 25 gAi; ED90 (Xanthium strumarium [22]): 25 gAi; ED90 (Ipomoea lacunosa [24]): Active
CCSc1cccc(Sc2nc(OC)cc(OC)n2)c1C(=O)O |  | Toxic |  | Toxic |  | > 90 | Toxic | Non-toxic |  |  | < 50 | < 50 | <50 | <50 | Toxic | < 5 | mortality [25]: < 50%; Activity (Xanthium strumarium [27]): <50%; Activity (Xanthium strumarium [28]): <50%; Activity (Gossypium hirsutum [29]): Non-toxic; mortality [30]: < 50%; Activity (Gossypium hirsutum [32]): Non-toxic; mortality at 63 g/ha (Echinochloa crus-galli [33]): < 5%; mortality [34]: < 50%
COc1cc(OC)nc(Sc2cccc(C(F)(F)F)c2C(=O)O)n1 | Non-toxic | Toxic | < 5 | Toxic | Non-toxic |  | Toxic | Toxic | < 5 | Toxic | < 50 | < 50 | <50 | <50 | Toxic | < 5 | Activity (Ipomoea lacunosa [38]): <50%; Activity (Abutilon theophrasti [39]): <50%; Activity (Echinochloa crus-galli [40]): >90%
